Assay [1] concerns sodium, potassium or calcium channels. The assay is described as follows: Na+, K+ and Ca2+ currents in cultured cortical neurons. As to conditions: 10 mM NaGcA; sodium salt. It counts as cell-based, mouse. The source says:
Experiments were designed to answer the question as to what is/are the molecular target(s) of gluconate. Ion channel regulation was first investigated where a comparison of NaGcA on sodium, potassium or calcium channels was made. […] See, FIGS. 2A-2F. Although it is not necessary to understand the mechanism of an invention, it is believed that since gluconic acid is an organic anion, it might affect neuronal anion channels.

For another assay, the target named is T1, CLC-3 channels (Rattus norvegicus, UniProt P51792).
T1 construct: host or cells: HEK293T
T1 sequence (P51792 1-760 isoform P51792-2): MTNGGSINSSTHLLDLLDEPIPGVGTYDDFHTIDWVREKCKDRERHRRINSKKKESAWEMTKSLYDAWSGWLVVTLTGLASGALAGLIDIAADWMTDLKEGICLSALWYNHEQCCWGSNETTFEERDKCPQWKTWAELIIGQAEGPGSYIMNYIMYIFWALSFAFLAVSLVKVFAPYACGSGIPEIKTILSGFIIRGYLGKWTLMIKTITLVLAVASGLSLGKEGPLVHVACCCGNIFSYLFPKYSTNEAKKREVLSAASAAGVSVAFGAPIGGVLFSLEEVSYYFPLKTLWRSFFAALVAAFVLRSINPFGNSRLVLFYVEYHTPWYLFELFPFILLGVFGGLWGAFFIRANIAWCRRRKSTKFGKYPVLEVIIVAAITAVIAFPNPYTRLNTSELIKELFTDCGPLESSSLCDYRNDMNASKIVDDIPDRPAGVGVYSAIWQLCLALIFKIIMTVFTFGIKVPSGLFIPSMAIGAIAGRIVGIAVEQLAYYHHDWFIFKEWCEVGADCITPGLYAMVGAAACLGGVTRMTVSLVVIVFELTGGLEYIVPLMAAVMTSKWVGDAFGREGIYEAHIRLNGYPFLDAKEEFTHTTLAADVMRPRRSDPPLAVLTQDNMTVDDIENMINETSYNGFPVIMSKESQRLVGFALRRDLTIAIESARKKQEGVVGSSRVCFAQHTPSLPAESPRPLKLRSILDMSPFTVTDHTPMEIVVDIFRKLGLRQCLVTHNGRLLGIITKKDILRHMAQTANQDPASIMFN
Put plainly: Whole-cell Cl− currents in CLC-3-transfected HEK293T cells. Format: cell-based.

The next assay addresses T2, CLC-3 Cl− channels (Mus musculus, UniProt P51791).
T2 construct: CA3 pyramidal neurons of hippocampal slices from neonatal mice; from tissue; host or cells: acute hippocampal slices (CA3 pyramidal neurons), C57BL/6 mice
T2 sequence (P51791 1-818): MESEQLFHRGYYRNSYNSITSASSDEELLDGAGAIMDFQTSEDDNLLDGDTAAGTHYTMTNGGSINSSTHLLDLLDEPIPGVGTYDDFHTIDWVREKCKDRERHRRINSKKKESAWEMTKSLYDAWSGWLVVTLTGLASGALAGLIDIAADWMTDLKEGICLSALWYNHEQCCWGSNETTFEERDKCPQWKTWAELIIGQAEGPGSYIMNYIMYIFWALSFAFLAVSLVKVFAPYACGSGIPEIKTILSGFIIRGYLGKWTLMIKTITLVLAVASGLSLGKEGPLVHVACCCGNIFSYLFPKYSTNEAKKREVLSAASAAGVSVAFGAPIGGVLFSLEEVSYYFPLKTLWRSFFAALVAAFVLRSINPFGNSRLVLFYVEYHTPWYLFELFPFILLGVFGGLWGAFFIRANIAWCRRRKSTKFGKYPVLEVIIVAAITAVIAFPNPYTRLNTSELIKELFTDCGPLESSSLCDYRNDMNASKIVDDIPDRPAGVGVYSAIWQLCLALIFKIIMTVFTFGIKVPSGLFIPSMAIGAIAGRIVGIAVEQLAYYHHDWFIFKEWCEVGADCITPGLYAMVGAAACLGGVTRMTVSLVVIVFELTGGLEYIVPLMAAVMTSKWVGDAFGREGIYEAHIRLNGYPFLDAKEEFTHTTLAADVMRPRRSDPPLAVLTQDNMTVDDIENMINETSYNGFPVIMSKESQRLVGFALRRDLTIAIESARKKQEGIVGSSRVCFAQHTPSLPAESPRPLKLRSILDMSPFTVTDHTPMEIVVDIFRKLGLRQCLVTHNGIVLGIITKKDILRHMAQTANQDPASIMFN
The assay is described as follows: Voltage-dependent outward rectifying Cl− currents in CA3 pyramidal neurons of hippocampal slices. It counts as cell-based.

Assay [2] concerns PTZ-induced epileptic seizures. The assay is described as follows: PTZ-induced epileptiform activity in adult mice, EEG recording. It counts as in vivo, mouse. The following applies: PTZ 50 mg/kg i.p. The protocol: To test the in vivo anti-epilepsy effects of gluconate in neonatal and adult rodents, P8-12 Sprague-Dawley rats or 2-month old male C57BL/6 mice were deeply anesthetized with pentobarbital sodium (50 mg/kg for neonatal rat and 100 mg/kg for adult mice, intraperitoneal injection). Two stainless steel screws (1 mm in diameter) were inserted in the skull above the cortex as EEG recording electrodes, one ground electrode as well as one reference electrode were located +1.8 mm anterior to bregma, ±0.5 mm lateral to the midline, and 1 mm below the cortical surface. All electrodes were attached to a micro-connector and fixed onto the skull with dental cement. After surgery, neonatal rats were returned to their mothers and allowed to recover for 2 days prior to subsequent EEG recording. The adult mice were single housed in order to prevent damage of the implanted electrodes and allowed to recover at least 5 days before EEG recording.
The baseline of EEG was recorded for 0.5-1 hr to allow the animal to adapt to the environment. Kainic acid (2 mg/kg) was administered intraperitoneally (i.p.) for neonatal epilepsy induction. D-gluconic acid sodium salt (2 g/kg) or 0.9% saline was injected i.p. 10 min after KA administration. […] Epileptiform activity was monitored for 1 hr after PTZ injection. […]
Adult EEG signal were analyzed by spike 2 software (an analysis program for CED 1401, Cambridge, UK). […]

“Also recorded” adds a separate entry of the source.

Regarding `O=C([O-])[C@H](O)[C@@H](O)[C@H](O)[C@H](O)CO.[Na+]` [NaGcA, D-gluconic acid sodium salt], the “Na+, K+ and Ca2+ currents” value in assay [1] was “no significant changes; also recorded: no effect”. Moreover, on CLC-3 channels (20 mM NaGcA, at +90 mV), the “CLC-3-mediated Cl− currents” value was 544±59 pA. Moreover, the “CLC-3 channel-mediated Cl− currents (inhibition)” value on CLC-3 channels (20 mM NaGcA, sodium salt) is “significantly inhibited; also recorded: significantly reduced”. Also, the “CLC-3-mediated Cl− currents after washout of NaGcA” value at CLC-3 channels (after washout, at +90 mV) is recorded as 925±124 pA. The “Cl− currents after 0 Mg2+ treatment (inhibition)” value at CLC-3 Cl− channels (0 Mg2+ aCSF 1 hr, 20 mM NaGcA, sodium salt) is recorded as “remarkable inhibition; also recorded: significantly inhibited; also recorded: significantly blocked; also recorded: remarkably inhibited”. Also, the “Cl− current density after 0 Mg2+ treatment” value at CLC-3 Cl− channels (0 Mg2+ aCSF 1 hr, recorded in 20 mM NaGcA, +90 mV) was 7.3±0.6 pA/pF. On CLC-3 Cl− channels (20 mM NaGcA, neonatal, sodium salt), the “Cl− currents in neonatal CA3 pyramidal neurons” value is “dramatically reduced; also recorded: potent inhibitor; also recorded: remarkably inhibited”. In addition, on CLC-3 Cl− channels (CLC-3 KO mice, NaGcA, sodium salt), the “Cl− currents in CLC-3 KO mice” value is recorded as “little inhibition; also recorded: no effect”. Besides, the “Cl− current inhibition by gluconic acid with various counter ions” value on CLC-3 Cl− channels (P8-12 neonatal mice, 20 mM NaGcA, 10 mM Mg(GcA)2, 20 mM gluconic acid) was “equivalent Cl− current inhibition”. Moreover, the “Cl− currents in adult brains” value at CLC-3 Cl− channels (adult (P60-62), 20 mM NaGcA) is “no effect”. The “epileptic burst activity induced by PTZ” value in assay [2] is listed as “did not suppress the epileptic burst activity as effective”. Besides, the “latency of epileptiform spikes or bursts induced by PTZ” value in assay [2] (NaGcA 1 and 2 g/kg, sodium salt) was “prolonging the latency; also recorded: prolonged”.

(Values after patent US11666640B2, “Glucose oxidase compositions as a neonate anticonvulsant” (PENN STATE RESEARCH FOUNDATION, priority 2018, dated 2023).)
